Holding throughout (test): DTP human tumour cell line panel, 48 h
Experiment [1] deals with T-47D breast.
Experiment [2] relates to SK-OV-3 ovarian.
The test system of experiment [3] is MALME-3M melanoma.
Experiment [4] deals with SF-295 CNS.
Experiment [5] has as its system MOLT-4 leukemia.
Experiment [6] deals with SNB-19 CNS.
The test system of experiment [7] is UACC-62 melanoma.
In experiment [8] the test system is NCI-H522 lung.
The test system of experiment [9] is NCI-H23 lung.
Experiment [10] relates to UACC-257 melanoma.
For experiment [11], the system named is HT29 colon.
Experiment [12] relates to HOP-92 NSCLC.
Experiment [13] has as its system NCI-H226 lung.
The subject of experiment [14] is 786-0 renal.
In experiment [15] the test system is TK-10 renal.
The subject of experiment [16] is NCI-H460 lung.
The test system of experiment [17] is BT-549 breast.
In experiment [18] the test system is CCRF-CEM leukemia.
The subject of experiment [19] is SW-620 colon.

SMILES strings stand for the structures.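 Growth conditions: 96-well plates. Treatment: test compound, 48 hours, 5 concentrations. Analysis: linear interpolation between bracketing concentrations; unreached endpoints set to highest concentration. At the TGI there is no net growth.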

Consider `Cc1cccc2c(=O)c3c(O)cc(O)cc3[nH]c12`, for which the TGI in experiment [1], in experiment [2], in experiment [3], in [4], in experiment [5] and in [6] was over 10 µM in each case. Further, the TGI in experiment [7], in [8], in experiment [9], in [10], in experiment [11] and in experiment [12] was over 10 µM in each case. For the same molecule, the total growth inhibition concentration (TGI) in experiment [13], in experiment [14], in [15], in experiment [16], in experiment [17] and in experiment [18] was over 10 µM in each case. Besides, in [19], the TGI (in general, the concentration giving total growth inhibition) is over 10 µM.
For the molecule `CCOP(=O)(OCC)C(Nc1cccc([N+](=O)[O-])c1)c1ccccc1` (stereo unspecified), the TGI in [1] is 62.1 µM; in experiment [2], over 100 µM; in [3], over 100 µM; in [4] it was over 100 µM; in experiment [5], over 100 µM; in experiment [6] it was over 100 µM. The TGI in experiment [7], in experiment [8], in [9], in experiment [10], in [11] and in [12] was over 100 µM throughout. The TGI in experiment [13], in experiment [14], in [15], in [16], in experiment [17] and in [18] was over 100 µM throughout.
Take `c1ccc(-c2cs[s+]c2)cc1`: the concentration for total growth inhibition (TGI) was over 100 µM in experiment [1]; over 100 µM in [2]; over 100 µM in experiment [3]; over 100 µM in [4]; 85.6 µM in experiment [5]; over 100 µM in experiment [6]. The TGI in experiment [7], in [8], in [9], in [10], in experiment [11] and in experiment [12] was over 100 µM throughout. In addition, the TGI in [13] was over 100 µM; in experiment [14], over 100 µM; in [15], over 100 µM; in experiment [16], over 100 µM; in experiment [17], over 100 µM; in experiment [18], 83.1 µM. This molecule showed a TGI in experiment [19] of over 100 µM.
Consider `CC(=O)OC1COC(n2nc(/C=C/c3ccc(Cl)cc3)c(=O)n(/N=C/c3ccccc3)c2=S)C(OC(C)=O)C1OC(C)=O` (stereo unspecified), for which the concentration for total growth inhibition (TGI) in experiment [1], in experiment [2], in experiment [3], in experiment [4], in [5] and in experiment [6] was over 100 µM each time. The TGI in experiment [7], in [8], in experiment [9], in experiment [10], in [11] and in experiment [12] was over 100 µM throughout. Besides, the TGI in experiment [13], in experiment [14], in [15], in experiment [16], in experiment [17] and in experiment [18] was over 100 µM in each case. In experiment [19], the TGI is over 100 µM.
In the case of `C(=C\c1nccs1)/c1cccc(/C=C/c2nccs2)n1`, the concentration for total growth inhibition (TGI) in [1], in experiment [2], in [3], in experiment [4], in experiment [5] and in [6] was over 50 µM in each case. In addition, the TGI in experiment [7], in experiment [8], in experiment [9], in experiment [10], in experiment [11] and in [12] was over 50 µM in each case. For the same molecule, the TGI in [13], in experiment [14], in experiment [15], in experiment [16], in experiment [17] and in experiment [18] was over 50 µM in each case. The total growth inhibition concentration (TGI) in experiment [19] is over 50 µM.
In the case of `O=C(N/N=C/c1ccc([N+](=O)[O-])cc1)c1cccc2nc3ccccc3nc12`, the TGI in [1], in experiment [2], in experiment [3], in experiment [4], in experiment [5] and in [6] was over 100 µM throughout. Besides, the total growth inhibition concentration (TGI) in [7] was over 100 µM; in experiment [8] it was over 100 µM; in experiment [9], over 100 µM; in experiment [10] it was over 100 µM; in [11], over 100 µM; in experiment [12] it was over 87.3 µM. In addition, the concentration for total growth inhibition (TGI) in [13] was over 100 µM; in experiment [14], over 100 µM; in experiment [15], over 69.2 µM; in [16], over 64.4 µM; in experiment [17], over 100 µM; in [18], over 100 µM. Also, the concentration for total growth inhibition (TGI) in experiment [19] is over 100 µM.
Consider `Cc1nc2ccc(F)cc2c2c1CCO2`, for which the TGI in [1], in experiment [3], in experiment [4], in [5], in [6] and in experiment [7] was over 100 µM in each case. The TGI in experiment [8], in experiment [9], in experiment [10], in [11], in experiment [12] and in experiment [13] was over 100 µM each time. In addition, the TGI in experiment [14], in experiment [15], in [16], in experiment [17], in experiment [18] and in [19] was over 100 µM each time.

The values above are taken from PubChem BioAssay (NCI).
